Laboratory results as given in PMC7998589, “A Radiobrominated Tyrosine Kinase Inhibitor for EGFR with L858R/T790M Mutations in Lung Carcinoma” (Pharmaceuticals, 2021).

What was measured:
[1] = test system: H441 (wild-type EGFR); design: method as in PMID 32599930; conditions: WST-8, ref [9]; cited from earlier work
[2] = test system: H3255 (EGFR L858R); design: method as in PMID 32599930; conditions: WST-8, ref [9]; cited from earlier work
[3] = test system: H1975 (EGFR L858R/T790M); design: method as in PMID 32599930; conditions: WST-8, ref [9]; cited from earlier work
[4] = test system: EGFR L858R/T790M; design: method as in PMID 32599930; conditions: ref [9]; cited from earlier work
[5] = test system: H1975 and H441 tumors; experiment: Biodistribution of double tracers in tumor-bearing mice; format: in vivo, BALB/c nu/nu mice
Method: Six weeks old male ddY mice and four weeks old female BALB/c nu/nu mice were purchased from Japan SLC Inc. (Hamamatsu, Japan). Tumor-bearing mice were prepared by subcutaneous injection of cells suspended in 100 μL medium to the female BALB/c nu/nu mice. H1975 cells (5 × 10^6 cells) were implanted in the right shoulder, and H441 cells (3 × 10^6 cells) were implanted in the left shoulder. The tumor reached palpable size after post-inoculation 12 and 9 days for H1975 and H441, respectively.
(§1) One month later, ^125I activity was determined.

[6] = test system: H1975 (L858R/T790M double mutations EGFR); experiment: Cellular uptake and blocking study, H1975; format: cell-based, human
Method: H1975 (1 × 10^5 cells/well), H441 (1 × 10^5 cells/well), and H3255 (2 × 10^5 cells/well) NSCLC cells were cultured in 6 well plates. Cells were incubated in medium with 10% FBS and 100 IU/mL penicillin–streptomycin at 37 °C in a humidified atmosphere with 5% CO2 for 24 h. […] The cells were dissolved by a 1.0 M NaOH aqueous solution (0.5 mL × 2). The cell lysate was transferred into a test tube. The radioactivity of ^77Br was measured by an auto well gamma counter at a 100–600 keV energy range. […] The BCA protein assay kit protocol was used to determine the protein concentration.

[7] = Stability assessment in PBS and murine plasma; format: in vitro ADME, mouse; conditions: 1 h, 37 °C
Method: The stability profile of [^77Br]9 in phosphate-buffered saline (PBS) and murine plasma is presented in Supporting Information (Figure S2). [^77Br]9 was >80% intact in PBS and murine plasma after incubation for 1 h at 37 °C. Its purity decreased to 57% after 24 h of incubation.
To confirm the stability, we measured the purity of radiotracer after incubation in PBS and mouse plasma, respectively, as described previously.

[8] = Determination of partition coefficient (n-octanol / 0.1 M phosphate buffer pH 7.4); format: physicochemical
Method: To determine the lipophilicity, the partition coefficient of [^77Br]9 was measured as described previously.

[9] = Biodistribution of double tracers in normal mice; format: in vivo; conditions: ddY mice
Method: as §1

## C=CC(=O)Nc1cc(I)cc(Nc2nc(Nc3ccc(N4CCN(C(C)=O)CC4)cc3OC)ncc2C(F)(F)F)c1 [ICO1686]
[1]
  IC50: 1840 ± 440 nM
[2]
  IC50: 500 ± 210 nM
[3]
  IC50: 200 ± 50 nM
[4]
  selectivity toward EGFR L858R/T790M compared with wild-type EGFR: high selectivity

## C=CC(=O)Nc1cc([77Br])cc(Nc2nc(Nc3ccc(N4CCN(C(C)=O)CC4)cc3OC)ncc2C(F)(F)F)c1 [[^77Br]9]
[5]; 1 h after i.v. injection
  Biodistribution, Blood: 5.64 % ID/g
  Biodistribution, Bone: 1.93 % ID/g
  Biodistribution, Brain: 1.49 % ID/g
  Biodistribution, H441 tumor: 3.71 % ID/g
  Biodistribution, H1975 tumor: 4.51 % ID/g
  Biodistribution, Heart: 5.36 % ID/g
  Biodistribution, Kidney: 7.75 % ID/g
  Biodistribution, Large intestine: 24.33 % ID/g
  Biodistribution, Liver: 15.89 % ID/g
  Biodistribution, Lung: 11.42 % ID/g
  Biodistribution, Muscle: 3.42 % ID/g
  Biodistribution, Pancreas: 12.95 % ID/g
  Biodistribution, Small intestine: 64.52 % ID/g
  Biodistribution, Spleen: 9.19 % ID/g
  Biodistribution, Stomach: 1.31 % ID/organ
[5]; 6 h after i.v. injection
  Biodistribution, Blood: 5.35 % ID/g
  Biodistribution, Bone: 1.95 % ID/g
  Biodistribution, Brain: 1.39 % ID/g
  Biodistribution, H441 tumor: 3.30 % ID/g
  Biodistribution, H1975 tumor: 3.48 % ID/g
  Biodistribution, Heart: 2.99 % ID/g
  Biodistribution, Kidney: 4.91 % ID/g
  Biodistribution, Large intestine: 59.40 % ID/g
  Biodistribution, Liver: 6.76 % ID/g
  Biodistribution, Lung: 6.29 % ID/g
  Biodistribution, Muscle: 1.79 % ID/g
  Biodistribution, Pancreas: 4.28 % ID/g
  Biodistribution, Small intestine: 12.46 % ID/g
  Biodistribution, Spleen: 2.04 % ID/g
  Biodistribution, Stomach: 1.27 % ID/organ
[6]; 4 h of incubation
  accumulation in H1975 versus H3255 and H441: significantly higher
[6]; H1975
  reduction of uptake upon pretreatment with CO-1686: ~60%
[6]; H1975, 4 h, CO-1686 100 µM blocking
  accumulation of radioactivity with pretreatment with excess CO-1686: 56.9 % dose/mg protein
[6]; H1975, 4 h incubation
  accumulation of radioactivity (cell uptake): 136.3 % dose/mg protein
[6]; H1975, gefitinib 100 µM blocking
  effect of gefitinib on uptake: not significantly reduced
[7]; PBS
  intact in PBS: > 80%
[7]; murine plasma
  intact in murine plasma: > 80%
[8]
  logP: 1.72 ± 0.21
[9]; 10 min after i.v. injection
  Biodistribution, Blood: 3.57 % ID/g
  Biodistribution, Bone: 2.76 % ID/g
  Biodistribution, Brain: 0.45 % ID/g
  Biodistribution, Heart: 4.57 % ID/g
  Biodistribution, Kidney: 11.68 % ID/g
  Biodistribution, Large intestine: 2.83 % ID/g
  Biodistribution, Liver: 11.04 % ID/g
  Biodistribution, Lung: 8.72 % ID/g
  Biodistribution, Muscle: 3.18 % ID/g
  Biodistribution, Pancreas: 3.78 % ID/g
  Biodistribution, Small intestine: 25.38 % ID/g
  Biodistribution, Spleen: 5.11 % ID/g
  Biodistribution, Stomach: 6.17 % ID/organ
[9]; 1 h after i.v. injection
  Biodistribution, Blood: 3.24 % ID/g
  Biodistribution, Bone: 1.66 % ID/g
  Biodistribution, Brain: 0.95 % ID/g
  Biodistribution, Heart: 2.93 % ID/g
  Biodistribution, Kidney: 4.21 % ID/g
  Biodistribution, Large intestine: 3.18 % ID/g
  Biodistribution, Liver: 3.83 % ID/g
  Biodistribution, Lung: 4.97 % ID/g
  Biodistribution, Muscle: 2.02 % ID/g
  Biodistribution, Pancreas: 3.58 % ID/g
  Biodistribution, Small intestine: 26.49 % ID/g
  Biodistribution, Spleen: 4.83 % ID/g
  Biodistribution, Stomach: 7.00 % ID/organ
[9]; 4 h after i.v. injection
  Biodistribution, Blood: 3.19 % ID/g
  Biodistribution, Bone: 1.54 % ID/g
  Biodistribution, Brain: 0.74 % ID/g
  Biodistribution, Heart: 1.87 % ID/g
  Biodistribution, Kidney: 2.81 % ID/g
  Biodistribution, Large intestine: 47.73 % ID/g
  Biodistribution, Liver: 3.72 % ID/g
  Biodistribution, Lung: 5.08 % ID/g
  Biodistribution, Muscle: 1.13 % ID/g
  Biodistribution, Pancreas: 3.04 % ID/g
  Biodistribution, Small intestine: 5.23 % ID/g
  Biodistribution, Spleen: 2.92 % ID/g
  Biodistribution, Stomach: 6.68 % ID/organ
[9]; 24 h after i.v. injection
  Biodistribution, Blood: 1.99 % ID/g
  Biodistribution, Bone: 0.89 % ID/g
  Biodistribution, Brain: 0.42 % ID/g
  Biodistribution, Heart: 0.80 % ID/g
  Biodistribution, Kidney: 1.33 % ID/g
  Biodistribution, Large intestine: 0.98 % ID/g
  Biodistribution, Liver: 1.04 % ID/g
  Biodistribution, Lung: 1.62 % ID/g
  Biodistribution, Muscle: 0.47 % ID/g
  Biodistribution, Pancreas: 1.13 % ID/g
  Biodistribution, Small intestine: 1.00 % ID/g
  Biodistribution, Spleen: 1.14 % ID/g
  Biodistribution, Stomach: 2.21 % ID/organ
[9]; 24 h postinjection
  eliminated in feces: 35%
